# Data: US4118482A (priority 1977, dated 1978)
# Like-named read-outs stand apart in the source and are kept apart here.
# Legend:
# [1] = tested on: advanced Ridgeway osteogenic sarcoma; conditions: cited from earlier work
# [2] = tested on: Bacillus subtilis, Staphylococcus aureus and Staphylococcus albus; assay: Inhibition of bacterial growth (cross section of gram-positive and gram-negative bacteria); format: cell-based
# P388 leukemia = P388 leukemia in mice, treatment QD at days 1-9 (National Cancer Institute screen); format: in vivo; conditions: for 5 ILS* (increased life span) / 60 DAY "CURES" / SURVIAL TIME MEDIAN: QD days 1-9, P388 mice; for SURVIAL TIME MEDIAN: controls 10 days
# Excerpt: (§1) The National Cancer Institute conducted a screening test on samples of both Azetomicin I (3' prolyl, 3' azet) and Azetomicin II (3', 3' azet) as well as on Dactinomycin (3', 3' prolyl) that is also known as Actinomycin D or C1. The Azetomicin and Dactinomycin molecules are identical, with the exception of the 3' amino acid position on the peptides, wherein the 3' positions, in the case of Dactinomycin are both prolyl; in the case of the Azetomicin I are prolyl and azetidine-2-carboxyl; and in the cae of Azetomicin II are both azetidine-2-carboxyl.
# P 388 LEUKEMIA : QD AT DAYS 1-9 TREATMENT
# [3] = Storage stability in aqueous solution; format: physicochemical; conditions: 0°-25° C, pH range of 5-8, maintained in the dark
# Protocol: The major products of interest were determined to be Azetomicin I and Azetomycin II. They were stable after storage at 0°-25° C in aqueous solution in the pH range of 5-8 for at least 5 days when maintained in the dark.
# ADVANCED P388 LEUKEMIA = assay: Advanced P388 leukemia in mice, treatment Q4D x 3 at days 5, 9, 13; format: in vivo; conditions: 0.6 Mg/Kg/Inj., Q4D x 3 days 5, 9, 13, advanced P388
# Excerpt: as §1
# ADVANCED P388 LEUKEMIA : Q4D × 3 AT DAYS 5, 9, 13 TREATMENT
# Rous sarcoma virus = assay: Development of visible tumors in chicks infected with Rous sarcoma virus, single injection; format: in vivo; conditions: injected once; compared with untreated or saline injected controls
# Protocol: In another test, both Azetomicin I and Azetomicin II, were injected once into chicks infected with Rous sarcoma virus. The development of visible tumors was decreased by over 80% as compared with untreated or saline injected controls.
# [4] = Toxicity per mg compared with Actinomicin D
# [5] = tested on: advanced Ridgeway osteogenic sarcoma; assay: Drug-induced regression of advanced Ridgeway osteogenic sarcoma in mice; format: in vivo
# Protocol: A sample of Azetomicin I was tested on mice infected with advanced Ridgeway osteogenic sarcoma. […] Data supplied by Dr. F. Schabel and his coworkers at Southern Research Institute has been collected in Table II below, with the results from Azetomicin I testing also noted: […]
# [6] = schedule day 12, data of Southern Research Institute
# [7] = schedule day 12, Azetomicin I testing
compound,measurement,setting,value
O=c1[nH]cc(F)c(=O)[nH]1 [FLUOROURACIL],"""CURES"" (Number/Total)","[1]; schedule days 12,16,20,24",0/10
same,REGRESSION 50+%-PARTIAL (Number/Total),"[1]; schedule days 12,16,20,24",8/10
same,REGRESSION COMPLETE (Number/Total),"[1]; schedule days 12,16,20,24",5/10
N[C@@H](Cc1ccc(N(CCCl)CCCl)cc1)C(=O)O [L-SARCOLYSIN],"""CURES"" (Number/Total)",[1]; [6],4/8
same,REGRESSION 50+%-PARTIAL (Number/Total),[1]; [6],8/8
same,REGRESSION COMPLETE (Number/Total),[1]; [6],7/8
S=c1nc[nH]c2nc[nH]c12 [MERCAPTOPURINE],"""CURES"" (Number/Total)",[1]; schedule days 12-22,0/10
same,REGRESSION 50+%-PARTIAL (Number/Total),[1]; schedule days 12-22,9/10
same,REGRESSION COMPLETE (Number/Total),[1]; schedule days 12-22,6/10
CN(Cc1cnc2nc(N)nc(N)c2n1)c1ccc(C(=O)N[C@@H](CCC(=O)O)C(=O)O)cc1 [METHOTREXATE],"""CURES"" (Number/Total)","[1]; schedule days 12,16,20,24",0/10
same,REGRESSION 50+%-PARTIAL (Number/Total),"[1]; schedule days 12,16,20,24",0/10
same,REGRESSION COMPLETE (Number/Total),"[1]; schedule days 12,16,20,24",0/10
CO[C@@]12[C@H](COC(N)=O)C3=C(C(=O)C(C)=C(N)C3=O)N1C[C@@H]1N[C@@H]12 [MITOMYCIN-C],"""CURES"" (Number/Total)",[1]; [6],0/10
same,REGRESSION 50+%-PARTIAL (Number/Total),[1]; [6],0/10
same,REGRESSION COMPLETE (Number/Total),[1]; [6],0/10
C[C@]12C=CC(=O)C=C1CC[C@@H]1[C@@H]2C(=O)C[C@@]2(C)[C@H]1CC[C@]2(O)C(=O)CO [PREDNISONE],"""CURES"" (Number/Total)","[1]; schedule days 12,16,20",0/10
same,REGRESSION 50+%-PARTIAL (Number/Total),"[1]; schedule days 12,16,20",0/10
same,REGRESSION COMPLETE (Number/Total),"[1]; schedule days 12,16,20",0/10
CNNCc1ccc(C(=O)NC(C)C)cc1 [PROCARBAZINE],"""CURES"" (Number/Total)",[1]; schedule days 12-20,0/10
same,REGRESSION 50+%-PARTIAL (Number/Total),[1]; schedule days 12-20,0/10
same,REGRESSION COMPLETE (Number/Total),[1]; schedule days 12-20,0/10
S=P(N1CC1)(N1CC1)N1CC1 [THIO-TEPA],"""CURES"" (Number/Total)",[1]; [6],0/10
same,REGRESSION 50+%-PARTIAL (Number/Total),[1]; [6],0/10
same,REGRESSION COMPLETE (Number/Total),[1]; [6],0/10
CC[C@]1(O)C[C@H]2CN(CCc3c([nH]c4ccccc34)[C@@](C(=O)OC)(c3cc4c(cc3OC)N(C=O)[C@H]3[C@@](O)(C(=O)OC)[C@H](OC(C)=O)[C@]5(CC)C=CCN6CC[C@]43[C@@H]65)C2)C1 [VINCRISTINE],"""CURES"" (Number/Total)","[1]; schedule days 12,16,20",0/10
same,REGRESSION 50+%-PARTIAL (Number/Total),"[1]; schedule days 12,16,20",10/10
same,REGRESSION COMPLETE (Number/Total),"[1]; schedule days 12,16,20",8/10
Azetomicin I [AZETOMICIN-I],activity against bacterial growth relative to Actinomicin D,[2],70%
same,5 ILS* (increased life span),P388 leukemia; 0.05 Mg/Kg/Inj.,150%
same,"60 DAY ""CURES""",P388 leukemia; 0.05 Mg/Kg/Inj.,0%
same,SURVIAL TIME MEDIAN,P388 leukemia; 0.05 Mg/Kg/Inj.,25 days
same,5 ILS* (increased life span),P388 leukemia; 0.1 Mg/Kg/Inj.,155%
same,"60 DAY ""CURES""",P388 leukemia; 0.1 Mg/Kg/Inj.,0%
same,SURVIAL TIME MEDIAN,P388 leukemia; 0.1 Mg/Kg/Inj.,25.5 days
same,5 ILS* (increased life span),P388 leukemia; 0.2 Mg/Kg/Inj.,≥ 500%
same,"60 DAY ""CURES""",P388 leukemia; 0.2 Mg/Kg/Inj.,60%
same,SURVIAL TIME MEDIAN,P388 leukemia; 0.2 Mg/Kg/Inj.,≥ 60 days
same,activity compared with Dactinomycin (summary of Table I),"P388 leukemia; P388 leukemia mice, Table I",clearly greater activity than both
same,time stable after storage in aqueous solution,[3],at least 5 days
same,5 ILS* (increased life span),ADVANCED P388 LEUKEMIA,270%
same,"60 DAY ""CURES""",ADVANCED P388 LEUKEMIA,0
same,SURVIAL TIME MEDIAN,ADVANCED P388 LEUKEMIA; controls 10 days,37 days
same,decrease of development of visible tumors,Rous sarcoma virus,over 80%
same,toxicity/mg. compared with Actinomicin D,[4],substantially less toxic/mg.
same,animals with complete regression,"[5]; of 10 animals treated, 12th day only injection schedule",10 animals
same,"""CURES"" (Number/Total)",[5]; [7],10/10
same,REGRESSION 50+%-PARTIAL (Number/Total),[5]; [7],10/10
same,REGRESSION COMPLETE (Number/Total),[5]; [7],10/10
L-ASPARAGINASE,"""CURES"" (Number/Total)",[1]; [6],0/10
same,REGRESSION 50+%-PARTIAL (Number/Total),[1]; [6],0/10
same,REGRESSION COMPLETE (Number/Total),[1]; [6],0/10
MITHRAMYCIN,"""CURES"" (Number/Total)",[1]; [6],0/7
same,REGRESSION 50+%-PARTIAL (Number/Total),[1]; [6],0/7
same,REGRESSION COMPLETE (Number/Total),[1]; [6],0/7
